Values of other authors as cited in patent US8273732B2, “Compositions for combating beta-lactamase-medicated antibiotic resistance using beta-lactamase inhibitors useful for injection” (Venus Remedies Limited, priority 2004, dated 2012).
Converted amounts (≈) assume the structure as drawn. Counter-ions that a name gives are not always drawn.

Experiments:
Acinetobacter baumannii = details: 156 clinical isolates of A. baumannii

| solubility in ethanol (ethanol) | solubility in methanol (methanol) | solubility in water (water) | Structure (SMILES) | MIC (90) (Acinetobacter baumannii) [mg/L] |
| --- | --- | --- | --- | --- |
| – | – | – | CC1(C)[C@H](C(=O)O)N2C(=O)C[C@H]2S1(=O)=O [Sulbactam, sulbactam] | 32 (≈ 137 µM) |
| very slightly soluble | sparingly soluble | readily soluble | CO/N=C(\C(=O)N[C@@H]1C(=O)N2C(C(=O)O)=C(CSc3nc(=O)c(=O)[nH]n3C)CS[C@H]12)c1csc(N)n1 [ceftriaxone sodium, (6R,7R)-7-[2-(2-amino-4-thiazolyl)glyoxylamido]-8-oxo-3-[[(1,2,5,6-tetrahydro-2-methyl-5,6-dioxo-as-triazin-3-yl)thio]methyl]-5-thia-1-azabicyclo[4.2.0]oct-2-ene-2-carboxylic acid, 7^2-(Z)-(O-methyloxime), disodium salt, sesquaterhydrate] | – |
